# Laboratory results from paper PMC4269219 (International journal of andrology, 2010).
# Assays:
# [1] = system: 5α-reductase; settings: finasteride 2 mg daily; ref Steiner, 1996; cited from earlier work
# [2] = system: endogenous testosterone production; settings: 300 µg/kg subcutaneous, normal healthy men; ref Herbst et al., 2004; cited from earlier work
# [3] = Steady-state pharmacokinetics of oral TU alone or with finasteride; assay type: in vivo, men; settings: seventh day of dosing, all treatments (Fig. 2A)
compound,measurement,setting,value
CC(C)(C)NC(=O)[C@H]1CC[C@H]2[C@@H]3CC[C@H]4NC(=O)C=C[C@]4(C)[C@H]3CC[C@]12C [finasteride],Reduction of circulating levels of DHT,[1],50%
acyline,Duration of testosterone suppression,[2],2 weeks
same,Time to suppression of testosterone to castrate levels,[2],≤ 24 h
"CCCCCCCCCCC(=O)O[C@H]1CC[C@H]2[C@@H]3CCC4=CC(=O)CC[C@]4(C)[C@H]3CC[C@]12C [TU + placebo, testosterone undecanoate]",Time after dosing at which mean serum testosterone concentrations peaked,[3],4 h
